# Measurements published in patent US8993542B2, “Methods of treating viral infections” (priority 2008, dated 2015).
# Where two headings read alike, the source gives them in different places.
# Key:
# [1] = Cytotoxicity (TC50) in PBMCs; assay type: cell-based; conditions: PBMCs
# PBMCs = experiment: Cytotoxicity (TC50) in PBMCs; assay type: cell-based
# HIV-2 Isolates = experiment: Activity against HIV-2 isolates in PBMCs, RT endpoint; assay type: cell-based; conditions: for IC50: Human immunodeficiency virus 2, PBMC
# HIV-1 Subtype Isolates = experiment: Activity against HIV-1 subtype isolates in PBMCs, RT endpoint; conditions: for IC50: Human immunodeficiency virus 1, PBMC
structure (smiles),measurement,setting,value
"CCCCCCCCCCCCCCCCOCCCOP(=O)(O)CO[C@H](C)Cn1cnc2c(N)ncnc21 [CMX157, Hexadecyloxypropyl-9-R-[2-(Phosphonomethoxy)Propyl]-Adenine]",CC50,[1]; HIV-2 isolate CDC310319,> 1000 nM
same,CC50,"[1]; human, isolate ADA, subtype B, read-out: TC 50 (the source's name)",> 1000 nM
same,CC50,PBMCs; HIV-2 isolate CBL-20,> 1000 nM
same,CC50,PBMCs; HIV-2 isolate CDC310342,> 1000 nM
same,CC50,"PBMCs; isolate 96USHIPS7, subtype B, read-out: TC 50 (the source's name)",> 1000 nM
same,CC50,"PBMCs; isolate BCF01, subtype O, read-out: TC 50 (the source's name)",> 1000 nM
same,CC50,"PBMCs; isolate BCF02, subtype O, read-out: TC 50 (the source's name)",> 1000 nM
same,CC50,"PBMCs; isolate BCF03, subtype O, read-out: TC 50 (the source's name)",> 1000 nM
same,CC50,"PBMCs; isolate BR/92/014, subtype B, read-out: TC 50 (the source's name)",> 1000 nM
same,CC50,"PBMCs; isolate BR/92/025, subtype C, read-out: TC 50 (the source's name)",> 1000 nM
same,CC50,"PBMCs; isolate BR/93/019, subtype F, read-out: TC 50 (the source's name)",> 1000 nM
same,CC50,"PBMCs; isolate BR/93/020, subtype F, read-out: TC 50 (the source's name)",> 1000 nM
same,CC50,"PBMCs; isolate BR/93/029, subtype F, read-out: TC 50 (the source's name)",> 1000 nM
same,CC50,"PBMCs; isolate CMU06, subtype E, read-out: TC 50 (the source's name)",> 1000 nM
same,CC50,"PBMCs; isolate CMU08, subtype E, read-out: TC 50 (the source's name)",> 1000 nM
same,CC50,"PBMCs; isolate G3, subtype G, read-out: TC 50 (the source's name)",> 1000 nM
same,CC50,"PBMCs; isolate IN/93/101, subtype C, read-out: TC 50 (the source's name)",> 1000 nM
same,CC50,"PBMCs; isolate JR-CSF, subtype B, read-out: TC 50 (the source's name)",> 1000 nM
same,CC50,"PBMCs; isolate JV1083, subtype G, read-out: TC 50 (the source's name)",> 1000 nM
same,CC50,"PBMCs; isolate MW/93/959, subtype C, read-out: TC 50 (the source's name)",> 1000 nM
same,CC50,"PBMCs; isolate RU132, subtype G, read-out: TC 50 (the source's name)",> 1000 nM
same,CC50,"PBMCs; isolate RW/92/009, subtype A, read-out: TC 50 (the source's name)",> 1000 nM
same,CC50,"PBMCs; isolate TH/92/026, subtype B, read-out: TC 50 (the source's name)",> 1000 nM
same,CC50,"PBMCs; isolate TH/93/073, subtype E, read-out: TC 50 (the source's name)",> 1000 nM
same,CC50,"PBMCs; isolate UG/92/001, subtype D, read-out: TC 50 (the source's name)",> 1000 nM
same,CC50,"PBMCs; isolate UG/92/024, subtype D, read-out: TC 50 (the source's name)",> 1000 nM
same,CC50,"PBMCs; isolate UG/92/029, subtype A, read-out: TC 50 (the source's name)",> 1000 nM
same,CC50,"PBMCs; isolate UG/92/037, subtype A, read-out: TC 50 (the source's name)",> 1000 nM
same,CC50,"PBMCs; isolate UG/92/046, subtype D, read-out: TC 50 (the source's name)",> 1000 nM
same,TI (TC50/IC50),HIV-2 Isolates; HIV-2 isolate CBL-20,>223
same,TI (TC50/IC50),HIV-2 Isolates; HIV-2 isolate CDC310319,>564
same,TI (TC50/IC50),HIV-2 Isolates; HIV-2 isolate CDC310342,>232
same,IC50,HIV-2 Isolates; HIV-2 isolate CBL-20,4.48 nM
same,IC50,HIV-2 Isolates; HIV-2 isolate CDC310319,1.77 nM
same,IC50,HIV-2 Isolates; HIV-2 isolate CDC310342,4.31 nM
same,IC50,"HIV-1 Subtype Isolates; read-out: IC50s against all major HIV subtypes, subtypes A-G, O and HIV-2, Tables 2 and 3",0.2 to 7.2 nM
same,IC50,"HIV-1 Subtype Isolates; read-out: RT Endpoint IC50, isolate 96USHIPS7, subtype B",4.8 nM
same,IC50,"HIV-1 Subtype Isolates; read-out: RT Endpoint IC50, isolate ADA, subtype B",1.08 nM
same,IC50,"HIV-1 Subtype Isolates; read-out: RT Endpoint IC50, isolate BCF01, subtype O",7.18 nM
same,IC50,"HIV-1 Subtype Isolates; read-out: RT Endpoint IC50, isolate BCF02, subtype O",2.47 nM
same,IC50,"HIV-1 Subtype Isolates; read-out: RT Endpoint IC50, isolate BCF03, subtype O",5.29 nM
same,IC50,"HIV-1 Subtype Isolates; read-out: RT Endpoint IC50, isolate BR/92/014, subtype B",1.58 nM
same,IC50,"HIV-1 Subtype Isolates; read-out: RT Endpoint IC50, isolate BR/92/025, subtype C",3.43 nM
same,IC50,"HIV-1 Subtype Isolates; read-out: RT Endpoint IC50, isolate BR/93/019, subtype F",6.4 nM
same,IC50,"HIV-1 Subtype Isolates; read-out: RT Endpoint IC50, isolate BR/93/020, subtype F",0.73 nM
same,IC50,"HIV-1 Subtype Isolates; read-out: RT Endpoint IC50, isolate BR/93/029, subtype F",1.03 nM
same,IC50,"HIV-1 Subtype Isolates; read-out: RT Endpoint IC50, isolate CMU06, subtype E",1.03 nM
same,IC50,"HIV-1 Subtype Isolates; read-out: RT Endpoint IC50, isolate CMU08, subtype E",2.81 nM
same,IC50,"HIV-1 Subtype Isolates; read-out: RT Endpoint IC50, isolate G3, subtype G",2.68 nM
same,IC50,"HIV-1 Subtype Isolates; read-out: RT Endpoint IC50, isolate IN/93/101, subtype C",0.53 nM
same,IC50,"HIV-1 Subtype Isolates; read-out: RT Endpoint IC50, isolate JR-CSF, subtype B",0.68 nM
same,IC50,"HIV-1 Subtype Isolates; read-out: RT Endpoint IC50, isolate JV1083, subtype G",2.32 nM
same,IC50,"HIV-1 Subtype Isolates; read-out: RT Endpoint IC50, isolate MW/93/959, subtype C",4.5 nM
same,IC50,"HIV-1 Subtype Isolates; read-out: RT Endpoint IC50, isolate RU132, subtype G",1.63 nM
same,IC50,"HIV-1 Subtype Isolates; read-out: RT Endpoint IC50, isolate RW/92/009, subtype A",1.75 nM
same,IC50,"HIV-1 Subtype Isolates; read-out: RT Endpoint IC50, isolate TH/92/026, subtype B",0.44 nM
same,IC50,"HIV-1 Subtype Isolates; read-out: RT Endpoint IC50, isolate TH/93/073, subtype E",2.95 nM
same,IC50,"HIV-1 Subtype Isolates; read-out: RT Endpoint IC50, isolate UG/92/001, subtype D",5.16 nM
same,IC50,"HIV-1 Subtype Isolates; read-out: RT Endpoint IC50, isolate UG/92/024, subtype D",0.3 nM
same,IC50,"HIV-1 Subtype Isolates; read-out: RT Endpoint IC50, isolate UG/92/029, subtype A",5.84 nM
same,IC50,"HIV-1 Subtype Isolates; read-out: RT Endpoint IC50, isolate UG/92/037, subtype A",2.3 nM
same,IC50,"HIV-1 Subtype Isolates; read-out: RT Endpoint IC50, isolate UG/92/046, subtype D",0.96 nM
same,TI (TC50/IC50),"HIV-1 Subtype Isolates; isolate 96USHIPS7, subtype B",>208
same,TI (TC50/IC50),"HIV-1 Subtype Isolates; isolate ADA, subtype B",>925
same,TI (TC50/IC50),"HIV-1 Subtype Isolates; isolate BCF01, subtype O",>139
same,TI (TC50/IC50),"HIV-1 Subtype Isolates; isolate BCF02, subtype O",>405
same,TI (TC50/IC50),"HIV-1 Subtype Isolates; isolate BCF03, subtype O",>189
same,TI (TC50/IC50),"HIV-1 Subtype Isolates; isolate BR/92/014, subtype B",>633
same,TI (TC50/IC50),"HIV-1 Subtype Isolates; isolate BR/92/025, subtype C",>291
same,TI (TC50/IC50),"HIV-1 Subtype Isolates; isolate BR/93/019, subtype F",>156
same,TI (TC50/IC50),"HIV-1 Subtype Isolates; isolate BR/93/020, subtype F",">1,362"
same,TI (TC50/IC50),"HIV-1 Subtype Isolates; isolate BR/93/029, subtype F",>972
same,TI (TC50/IC50),"HIV-1 Subtype Isolates; isolate CMU06, subtype E",>970
same,TI (TC50/IC50),"HIV-1 Subtype Isolates; isolate CMU08, subtype E",>356
same,TI (TC50/IC50),"HIV-1 Subtype Isolates; isolate G3, subtype G",>373
same,TI (TC50/IC50),"HIV-1 Subtype Isolates; isolate IN/93/101, subtype C",">1,892"
same,TI (TC50/IC50),"HIV-1 Subtype Isolates; isolate JR-CSF, subtype B",">1,480"
same,TI (TC50/IC50),"HIV-1 Subtype Isolates; isolate JV1083, subtype G",>431
same,TI (TC50/IC50),"HIV-1 Subtype Isolates; isolate MW/93/959, subtype C",>222
same,TI (TC50/IC50),"HIV-1 Subtype Isolates; isolate RU132, subtype G",>615
same,TI (TC50/IC50),"HIV-1 Subtype Isolates; isolate RW/92/009, subtype A",>571
same,TI (TC50/IC50),"HIV-1 Subtype Isolates; isolate TH/92/026, subtype B",">2,278"
same,TI (TC50/IC50),"HIV-1 Subtype Isolates; isolate TH/93/073, subtype E",>339
same,TI (TC50/IC50),"HIV-1 Subtype Isolates; isolate UG/92/001, subtype D",>194
same,TI (TC50/IC50),"HIV-1 Subtype Isolates; isolate UG/92/024, subtype D",">3,346"
same,TI (TC50/IC50),"HIV-1 Subtype Isolates; isolate UG/92/029, subtype A",>171
same,TI (TC50/IC50),"HIV-1 Subtype Isolates; isolate UG/92/037, subtype A",>435
same,TI (TC50/IC50),"HIV-1 Subtype Isolates; isolate UG/92/046, subtype D",">1,039"
